PMC8910629, “Design, Synthesis, and Anticancer Activity of a Selenium-Containing Galectin-3 and Galectin-9N Inhibitor” (International Journal of Molecular Sciences, 2022)
Several values for one entry are separate records, joined by “and”; a condition that tells them apart may be missing. Equal entries are not always repeated.

Key:
galectins = settings: cited from earlier work
Gal-9N^CRD = biological target: T1, Gal-9N^CRD (Homo sapiens, UniProt O00182); experiment: Isothermal titration calorimetry with Gal-9N CRD; assay type: binding; settings: ITC
T1 construct: Gal-9N^CRD (amino acid residues 1–148) were cloned into the vector pETM11; polyHis-tag (TEV-cleavable, from pETM11) (N); made in house; host or cells: Escherichia coli BL21(DE3)GOLD
Procedure: (§1) The two proteins were cloned into pETM11 expression vector with a N-terminal polyHis-tag that is removable by TEV protease. The recombinant vectors pETM11-gal3^CRD and pETM11-gal9^CRD were used to transform E. coli BL21(DE3)GOLD cells and a single colony was grown overnight at 37 °C in 20 mL of LB medium. In total, 10 mL of the saturated cultures were transferred in 1 L of LB medium and grown at 37 °C to 0.8 OD 600 nm before induction with IPTG (0.5 mM). The inductions were kept for 16 and for 3 h at 22 °C in the expression of Gal-3^CRD and Gal-9N^CRD, respectively. The cells were harvested by centrifugation, re-suspended in 30 mL of lysis buffer (20 mM NaP, 500 mM NaCl, 10 mM imidazole pH 7.0 for Gal-3^CRD and pH 7.5 Gal-9N^CRD), and sonicated. […] Elution was carried out with 300 mM imidazole. Fractions containing the recombinant protein were, finally, applied onto a Superdex 75 10/300 column (GE Healthcare), connected to an AKTA system (GE Healthcare) pre-equilibrated in 20 mM NaP, 150 mM NaCl pH 7.0 for the purification of Gal-3^CRD and pH 7.5 for Gal-9N^CRD.
(§2) The purified proteins were used to perform interaction studies. […] Before all titrations, molecules were dissolved in 20 mM NaP, 150 mM NaCl pH 7.0 (when the molecules were assayed against Gal-3^CRD) or pH 7.5 (for Gal-9N^CRD). The sample cell was filled with 280 μL of Gal-3^CRD or Gal-9N^CRD. Molecules were injected in a volume of 0.2 μL for the first injection and 1 μL for the next 39 injections using an injection interval of 150 s. The control experiment, obtained by injection of the same amount of each molecule in buffer solution, was subtracted to correct for heat production upon molecules dilution. All data were analyzed and fitted using the Microcal Origin version 7.0 software package. Binding enthalpy, dissociation constants, and stoichiometry were determined by fitting the data using a one-set-of-site-binding model.

Gal-1 = tested on: Gal-1; parameters: method as in PMID 27356186; settings: cited from earlier work
Gal-3 = settings: cited from earlier work
Gal-3^CRD = biological target: T2, Gal-3^CRD (Homo sapiens, UniProt P17931); experiment: Isothermal titration calorimetry with Gal-3 CRD; assay type: binding; settings: ITC, 298 K
T2 construct: The genes encoding Gal-3^CRD (amino acid residues 112–250); polyHis-tag (TEV-cleavable, from pETM11) (N); made in house; host or cells: Escherichia coli BL21(DE3)GOLD
Procedure: as §1, §2

HuVec cells = experiment: Angiogenesis (capillary tube formation) assay; assay type: cell-based, human; settings: SeDG at 2.5 mM
Procedure: Angiogenesis assay was performed by using “In Vitro Angiogenesis Assay Kit” (Merck, Burlington, MA, USA). Briefly, 100 μL of ECL were plated in a pre-cooled 96-well plate and incubated for 1 h at 37 °C. 10,000 cells (HuVec), suspended in EGM-2 [66], incubated with digalactosyl selenides, and seeded onto solidified matrix, according to manufacturer’s instructions. After 5–6 h of incubation at 37 °C, the tube formation was examined by means of a phase contrast optical microscope (Axiovert 200 Zeiss) at 10× magnification and the branch point number was calculated from 3 random fields per each treatment.

tumor cell proliferation = tested on: tumor cell proliferation; parameters: method as in doi:10.1039/D1QO00045D; settings: even at 2 mM concentration; cited from earlier work
WM266 cells [1] = experiment: Wound healing scratch assay; assay type: cell-based, human
Procedure: Analysis of cell migration in vitro has been carried out by using the wound healing scratch assay. WM266 cells were grown until they reached a confluent monolayer. After, they were linearly scratched with a pipette tip to generate a cell-free space. […] The area related to each incision was photographed at the time 0, 24, and 48 h using a phase contrast optical microscope with a 10× magnification (Zeiss). The distance between the edges of the incisions was measured by AxioVision Rel. 4.8 software and its mean value was determined as follows: wound closure (%) = 1 − (wound width tx/wound width t0) × 100. Bars depict mean ± SE of three independent experiments.

WM266 cells [2] = experiment: Transwell invasion assay; assay type: cell-based, human; settings: 24 h, SeDG
Procedure: To analyze cell invasion, the surface of a filter membrane of a transwell insert was coated with extracellular matrix (ECL) (Millipore). Cells (5 × 10^4) suspended in 100 μL of serum-free medium were incubated with various concentrations of molecules and successively they were seeded onto the upper compartment of the transwell, whereas the lower chambers were filled with medium containing 10% FCS [65]. After 24 h, the cells were fixed with 10% formalin and stained with crystal violet. The remaining cells in the upper side of the transwell were removed and cells on the undersurface of the filters, the invaded cells, were visualized and counted from six randomly selected fields (10× magnification) under a phase-contrast microscope with AxioVision Rel.

T1 sequence (O00182 1-148): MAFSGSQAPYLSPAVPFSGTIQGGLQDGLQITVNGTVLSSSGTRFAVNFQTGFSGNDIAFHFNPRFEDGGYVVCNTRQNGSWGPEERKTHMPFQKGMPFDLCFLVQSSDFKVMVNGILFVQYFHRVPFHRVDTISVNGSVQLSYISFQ

OC[C@H]1O[C@@H](O[C@H]2[C@H](O)[C@@H](O)C(O)O[C@@H]2CO)[C@H](O)[C@@H](O)[C@H]1O (mixture of isomers) [lactose]
binding affinities to galectins (galectins): high micromolar range
binding of lactose (functional integrity of protein) (Gal-9N^CRD; Figure S2): able to bind lactose

OC[C@H]1O[C@@H](S[C@@H]2O[C@H](CO)[C@H](O)[C@H](n3cc(-c4cccc(F)c4)nn3)[C@H]2O)[C@H](O)[C@@H](n2cc(-c3cccc(F)c3)nn2)[C@H]1O [TD139]
binding affinity (Gal-1): nanomolar affinity
binding affinity (Gal-3): nanomolar affinity

OC[C@H]1O[C@@H](S[C@@H]2O[C@H](CO)[C@H](O)[C@H](O)[C@H]2O)[C@H](O)[C@@H](O)[C@H]1O [TDG, β-D-galactopyranosyl-(1-1)-thio-β-D-galactopyranoside]
affinity to galectins (galectins): same affinity to galectins as lactose

digalactosyl selenide [SeDG]
n (stoichiometry) (Gal-9N^CRD; 298 K): 1.01 ± 0.05
ΔH (Gal-9N^CRD; 298 K): -23.6 ± 1.51 kJ/mol
−TΔS (Gal-9N^CRD; 298 K): -6.11 kJ/mol
Kd (Gal-9N^CRD; 298 K, pH 7.5): ~20 µM and 22.4 µM
n (stoichiometry) (Gal-3^CRD): 1.09 ± 0.05
ΔG (Gal-3^CRD): -26.4 kJ/mol
ΔH (Gal-3^CRD): -18.1 ± 1.13 kJ/mol
−TΔS (Gal-3^CRD): -8.33 kJ/mol
Kd (Gal-3^CRD; pH 7.0): 20.2 ± 2.2 µM
change of capillary tube formation (HuVec cells): non-statistically significant change
effect on tumor cell proliferation (tumor cell proliferation): unable to affect tumor cell proliferation
wound closure (WM266 cells [1]; WM266, SeDG at 1 and 2.5 mM, 24 and 48 h, vs untreated): decreased the wound closure at all used concentrations and time intervals
WM266 invasion through extracellular matrix (WM266 cells [2]): able to reduce the cells invasion but only at millimolar concentrations

CC(=O)N[C@H]1C(O)O[C@H](CO)[C@@H](O[C@@H]2O[C@H](CO)[C@H](O)[C@H](O)[C@H]2O)[C@@H]1O (some centres unmarked) [LacNAc, N-acetyllactosamine]
binding affinities to galectins (galectins): high micromolar range

B1: Gal-3^CRD: recombinant carbohydrate recognition domain of galectin 3 (residues 112–250), used as cell motility stimulator (protein, UniProt P17931 112-250, looked up, fragment)
chain: GPLIVPYNLPLPGGVVPRMLITILGTVKPNANRIALDFQRGNDVAFHFNPRFNENNRRVIVCNTKLDNNWGREERQSVFPFESGKPFKIQVLVEPDHFKVAVNDAHLLQYNHRVKKLNEISKLGISGDIDLTSASYTMI
modifications: carbohydrate recognition domain
notes: recombinant carbohydrate recognition domain of galectin 3 (residues 112–250), used as cell motility stimulator
cell migration (wound closure) vs control (WM266 cells [1]; WM266, 50 µM Gal-3^CRD): migrate more than in the control
